Reference: patent publication US20170246137A1, “SULFESTROL FOR TREATING CANCER” (CHAMAELEO PHARMA BVBA, priority 2012, published 2017)

Tests used:
MDA-MB-231 Dlux = experiment: Orthotopic spontaneous metastasis breast model, whole body bioluminescence; format: in vivo, female MF-1 nude mice; conditions: for total flux, whole body bioluminescence: mono-Sulfestrol 60 mg/kg, di-Sulfestrol 80 mg/kg orally once a day
Protocol: Female MF-1 nude mice (HsdOla:MF1-Foxn1nu, Harlan, UK) were divided into 3 groups of each 8 mice (n=8):
The mice were 5-6 weeks old at the start of the study and were maintained in sterile isolators within a barriered unit illuminated by fluorescent lights set to give a 12 hour light-dark cycle (on 07.00, off 19.00). The room was air-conditioned to maintain an air temperature range of 23±2° C. Sterile irradiated 2019 rodent diet (Harlan Teklad UK, product code Q219DJ1R2) and autoclaved water were offered ad libitum.
The MDA-MB-231 Dlux cells were maintained in vitro in RPMI containing 2 mM L-Glut and (Life Technologies, UK) and 10% (v/v) heat-inactivated foetal bovine serum (Sigma, Poole, UK) at 37° C. in 5% CO2 and humidified conditions. Cells were treated with Zeocin once a week at 0.4 mg/mL.
On the day of initiation cells were harvested from semi-confluent monolayers with 0.05% Trypsin-EDTA, washed twice in the culture medium and counted. Cells with viability of >90% were re-suspended, for in vivo administration, in 1:1 PBS:Matrigel at 2×10^6 cells/0.1 mL. Prior to injection, the cell suspension was homogenized and 0.1 mL of cell suspension was drawn into a 1 mL syringe. The cell suspension was then injected orthotopically into the lower left-side 2nd mammary fat pad of each mouse under anaesthesia (Medetomidine/Ketamine).
On day 7 after initiation and every six days thereafter, the mice were injected (s.c.) with 150 mg/kg D-Luciferin. 10 minutes following administration of D-Luciferin mice were anaesthetised and 15 minutes after administration they were placed into an imaging chamber (Spectrum CT) and imaged for luminescence (ventral view; whole body and shielding of the primary tumor). Images were captured and processed by Living Image 4.3.1 software (Caliper LS, US.).
On day 7 after initiation mice were assigned to groups such that there was a uniform mean bioluminescent signal between the groups.

MCF7 = experiment: In vitro direct cytotoxicity, Cell titer Blue viability, 72 hrs
Protocol: (§1) Cells were maintained in vitro in RPMI 1640 containing 10% (v/v) heat inactivated FBS and 2 mM L-glutamine (growth media) at 37° C. in 5% CO2 and humidified conditions. Cells were harvested, washed, resuspended into growth medium and counted. The cells were re-suspended into assay media (RPMI 1640+1% (v/v) heat inactivated FBS+ and 2 mM L-glutamine) at 0.5-1×10^5 cells/ml (dependent upon cell type) and plated into 96-well assay plates (Corning, black-wall plates) in 50 ul/well aliquots.
(§2) Plates were incubated overnight at 37° C. in 5% humidified CO2 prior to addition of the compounds. […] Stocks of all compounds were then serially diluted. Final concentrations to which cells were exposed were 300, 150, 75, 37.5, 18.75, 9.4, 4.7, 2.3, 1.2, 0.6 μM. Positive control was Cisplatin. Cisplatin was diluted in 1% FBS media to give a stock concentration of 1 mM. Cisplatin stock was then serially diluted. Final concentrations to which cells were exposed were 100, 50, 25, 12.5, 6.3, 3.1, 1.6, 0.8, 0.4, 0.2 μM.
(§3) Plates were incubated for 72 hrs at 37° C. in 5% humidified CO2 after addition of the compounds. Viability of the cells was assessed with the Cell titer Blue™ (Promega) assay. 10 μl of Cell titer Blue™ reagents was added to each test/blank well. Plates were incubated 3 h at 37° C. in 5% humidified CO2 prior to analysis. Fluorescence was measured with a Flex II station plate reader. Excitation wavelength was 570 nm, emission wave length was 600 nm, cut off was 590 nm. Raw data was processed by GraphPad Prism to calculate mean, standard deviation and IC50 values.

MDA-MB-231 = experiment: as above
Protocol: as §1, §2, §3

[1] = tested on: platelet-rich plasma (PRP); experiment: Platelet-aggregation-inducing effects in platelet-rich plasma, absorbance 630 nm; format: cell-based; conditions: 7 minutes, human PRP
Protocol: Blood necessary to generate PRP was obtained from 4 healthy human volunteers. 100 ml of fresh venous blood from each donor was isolated directly into tubes containing 1/10th volume of the anti-coagulant Tri-Sodium Citrate (3.2% w/v). The blood and anti-coagulant were immediately mixed and the final concentration of Tri-Sodium Citrate was 0.0106 M.
PRP was prepared by centrifugation of anti-coagulated blood at 180 g for 10 minutes at room temperature. The cloudy yellow supernatant containing the platelets was removed and placed into a clean polypropylene tube. Platelet-poor plasma (PPP) was prepared by centrifuging the remaining sample at 1,200 g for 20 minutes at room temperature. The PRP was adjusted to a suitable platelet count and absorbance at 630 nm by addition of PPP.
All three compounds were dissolved in 100% DMSO to give a stock concentration of 60 mM. […] […] 100 nM gamma thrombin (Cambridge bioscience) was used as control for platelet aggregation. 90 μl aliquots of PRP were added to 96 wells plates. A baseline absorbance reading was taken at 630 nm. 5 μl of the compounds and gamma thrombin control was added to the appropriate PRP.
The plates were incubated at room temperature for 7 minutes on a plate shaker with continuous shaking. A second A630 nm reading was made after the 7 minutes incubation to measure any platelet aggregation induced by the compounds.

[2] = In vitro metabolism in human liver microsomes (STS and CYP); format: in vitro ADME; design: Clint: unit not given here; conditions: for Clint / Contribution to metabolism / Half-life: 5 μM
Protocol: In vitro metabolism pathways of DES, Mono-Sulfestrol and Di-Sulfestrol in human liver microsomes were investigated.
Special emphasis was put on desulfatation by steroid sulfatase (STS) and oxidation by cytochrome P (CYP) metabolism. Liver microsomes (Celsis in vitro Technologies) were used at a concentration of 0.5 mg/ml in a volume of 600 μl phosphate buffer pH 7.4. Estrone-3-sulfate was used as positive control.
5 μM of each compound (test and control compound) was added to the liver microsomes and the mixture was incubated at 37° C. for 5, 10, 20, 30, 50, 90 and 120 minutes. After incubation, aliquots of 45 μl were taken which were subsequently quenched with 150 μl ice cold methanol. Aliquots were incubated ≧1 h at −20° C. for protein precipitation. After precipitation, samples were centrifuged and remaining supernatant was used for analysis with LC-MS/MS. Half life of the compounds, speed of metabolism or intrinsic clearance (Clint), and contribution to metabolism of CYP and STS metabolism were calculated based on the data obtained at each time point.

[3] = + NADPH + 667-Coumate (STS inactive, CYP active)
[4] = nothing added (STS active, CYP inactive)

4-(4-(4-oxidophenyl)hex-3-en-3-yl)phenyl sulfate [Mono-Sulfestrol]
total flux, whole body bioluminescence (MDA-MB-231 Dlux; Day 7 (before start of treatment)): 1.72 10^9 photons/second
total flux, whole body bioluminescence (MDA-MB-231 Dlux; Day 13): 5.89 10^9 photons/second
total flux, whole body bioluminescence (MDA-MB-231 Dlux; Day 19): 9.22 10^9 photons/second
effect on tumor progression (in words) (MDA-MB-231 Dlux; oral, MDA-MB-231 Dlux in mice): tumor progression inhibiting effect
cytotoxicity in vitro (in words) (MCF7; MCF7): cytotoxic
IC50 (MCF7; read-out: IC50 value, MCF7, hormone-dependent breast cancer cell line, 72 hrs): 85 µM
cytotoxicity in vitro (in words) (MDA-MB-231; MDA-MB231): cytotoxic
IC50 (MDA-MB-231; read-out: IC50 value, MDA-MB-231, triple negative breast cancer cell line, 72 hrs): 185 µM
Absorbance (630 nm) ([1]; 2.3 μM, high absorbance = low aggregation): 0.274 ± 0.034
Absorbance (630 nm) ([1]; 4.7 μM): 0.277 ± 0.029
Absorbance (630 nm) ([1]; 9.4 μM): 0.272 ± 0.029
Absorbance (630 nm) ([1]; 18.75 μM): 0.275 ± 0.029
Absorbance (630 nm) ([1]; 37.5 μM): 0.278 ± 0.030
Absorbance (630 nm) ([1]; 75 μM): 0.281 ± 0.031
Absorbance (630 nm) ([1]; 150 μM): 0.283 ± 0.036
metabolism pathway in human liver microsomes (in words) [2]: metabolized by both STS and CYP enzymes
Clint [2, 3]: 51
Contribution to metabolism [2, 3]: 44%
Half-life [2, 3]: 27 min
Clint [2, 4]: 22
Contribution to metabolism [2, 4]: 19%
Half-life [2, 4]: 63 min
